Measured values reported in patent publication US20240391882A1 (Mirati Therapeutics, Inc., priority 2023, published 2024).

These molecules were tested on pAKT in T47D (PI3Kα H1047R mutant) cells (assay: Inhibition of pAKT (alphaLISA Surefire Ultra AKT 1/2/3 pS473) in T47D cells). Conditions: Homo sapiens; T47D (PI3Kα H1047R mutant) cells, 24 hr compound incubation, alphaLISA pS473; read-out: T47D (H1047R) pAKT 24 hr (IC50).
Assay type: cell-based
Procedure: The ability of a compound of Formula (I) to inhibit the formation of pAKT was measured using alphaLISA Surefire Ultra AKT 1/2/3 (pS473) Assay Kit (#ALSU-PAKT-B50K) was obtained from Perkin Elmer (Waltham, MA).
To prepare assay plates for pAKT alphaLISA assays, cells were trypsinized, resuspended in fresh media, and viable cells were counted utilizing trypan blue exclusion. Prior to seeding, cells were washed with PBS and resuspended in HBSS (Gibco, #14025092). T47D (12,000/w), SKBR3 (12,000/w), or MKN1 (24,000/w) cells were seeded at 12 μl per well in a solid white flat bottom 384 cell culture plate (Perkin Elmer #6007680).
Immediately after seeding, cells were dosed using an Echo Liquid Handler (Beckman Coulter) with compounds at a 10.4 μm starting concentration and serially diluted (1:4) for a total of 10 concentrations. 14 vehicle (DMSO) and 14 positive control (Alpelisib @3.125 μm) wells were included on each assay plate. Cells were incubated with the compounds (solubilized in DMSO) for approximately 24 hours at 37° C. After 24 hours of treatment, cells were lysed with 3 μl of the 5× lysis buffer (provided and incubated at room temperature for 15 min on a microtiter plate shaker). Once cells were sufficiently lysed, 7.5 μl of the acceptor bead mix (made using the manufacturers recommended dilutions) was added to each well and left on the microtiter plate shaker for 1 min prior to incubating plates at room temperature for 1 hour, in the absence of light. After 1 hour of incubation with the acceptor bead mix, 7.5 μl of the donor bead mix (made using the manufacturers recommended dilutions) was added to each well and left on the microtiter plate shaker for 1 min prior to incubating plates at room temperature overnight in the absence of light. Plates were then imaged the following day using a CLARIOstar microplate reader (BMG Labtech, Germany).
Percent of control values were calculated by subtracting the average signal from the positive control (alpelisib) treated wells from all treated wells (including DMSO control wells) and then divided by the average signal from the vehicle DMSO treated control wells. Percent of vehicle control values were plotted as log(inhibitor) vs. response—Variable slope (four parameters) for curve fitting and IC50 values were determined using XLfit.

Structure (SMILES)	IC50 [nM]
Cc1cc([C@@H](C)Nc2ccc(Cl)nc2C(=O)O)c2nc(N3CC(C(F)(F)F)C3)c(C#N)nc2c1 [Example 131, (R)-6-chloro-3-((1-(2-cyano-7-methyl-3-(3-(trifluoromethyl)azetidin-1-yl)quinoxalin-5-yl)ethyl)amino)picolinic acid]	2.2
Cc1cc([C@@H](C)Nc2nccnc2C(=O)O)c2nc(N3CCC(F)(F)CC3)c(C#N)nc2c1 [Example 113, (R)-3-((1-(2-cyano-3-(4,4-difluoropiperidin-1-yl)-7-methylquinoxalin-5-yl)ethyl)amino)pyrazine-2-carboxylic acid]	> 10400
Cc1cc([C@@H](C)Nc2ccc(Cl)nc2C(=O)O)c2nc(-n3ccnc3)c(C#N)nc2c1 [Example 117, (R)-6-chloro-3-((1-(2-cyano-3-(1H-imidazol-1-yl)-7-methylquinoxalin-5-yl)ethyl)amino)picolinic acid]	66
COCCNc1nc2c([C@@H](C)Nc3ccc(Cl)nc3C(=O)O)cc(C)cc2nc1C#N [Example 132, (R)-6-chloro-3-((1-(2-cyano-3-((2-methoxyethyl)amino)-7-methylquinoxalin-5-yl)ethyl)amino)picolinic acid]	0.9
Cc1cc([C@@H](C)Nc2ccc(Cl)nc2C(=O)O)c2nc(N3CCc4cc(C#N)ccc4C3)c(C#N)nc2c1 [Example 85, (R)-6-chloro-3-((1-(2-cyano-3-(6-cyano-3,4-dihydroisoquinolin-2(1H)-yl)-7-methylquinoxalin-5-yl)ethyl)amino)picolinic acid]	2
Cc1cc([C@@H](C)Nc2ccccc2C(=O)O)c2nc(N3CC4(CCO4)C3)c(C#N)nc2c1 [Example 134, (R)-2-((1-(2-cyano-7-methyl-3-(1-oxa-6-azaspiro[3.3]heptan-6-yl)quinoxalin-5-yl)ethyl)amino)benzoic acid]	10.9
Cc1cc([C@@H](C)Nc2ccc(Cl)nc2C(=O)O)c2nc(N3CCC(n4cc(C)cn4)CC3)c(C#N)nc2c1 [Example 138, (R)-6-chloro-3-((1-(2-cyano-7-methyl-3-(4-(4-methyl-1H-pyrazol-1-yl)piperidin-1-yl)quinoxalin-5-yl)ethyl)amino)picolinic acid]	0.8
Cc1cc([C@@H](C)Nc2ccc(Cl)nc2C(=O)O)c2nc(N3CCN(c4ccc(C(F)(F)F)nc4)CC3)c(C#N)nc2c1 [Example 133, (R)-6-chloro-3-((1-(2-cyano-7-methyl-3-(4-(6-(trifluoromethyl)pyridin-3-yl)piperazin-1-yl)quinoxalin-5-yl)ethyl)amino)picolinic acid]	0.8
CC(=O)N(C)C1CCN(c2nc3c([C@@H](C)Nc4ccc(Cl)nc4C(=O)O)cc(C)cc3nc2C#N)CC1 [Example 137, (R)-6-chloro-3-((1-(2-cyano-7-methyl-3-(4-(N-methylacetamido)piperidin-1-yl)quinoxalin-5-yl)ethyl)amino)picolinic acid]	1.3
Cc1cc([C@@H](C)Nc2ccc(Cl)nc2C(=O)O)c2nc(N3CCC(n4cccn4)CC3)c(C#N)nc2c1 [Example 136, (R)-3-((1-(3-(4-(1H-pyrazol-1-yl)piperidin-1-yl)-2-cyano-7-methylquinoxalin-5-yl)ethyl)amino)-6-chloropicolinic acid]	0.7
Cc1cc([C@@H](C)Nc2ccc(Cl)nc2C(=O)O)c2nc(NCC3COC3)c(C#N)nc2c1 [Example 135, (R)-6-chloro-3-((1-(2-cyano-7-methyl-3-((oxetan-3-ylmethyl)amino)quinoxalin-5-yl)ethyl)amino)picolinic acid]	19.2

Second part, the molecule after the results:

IC50 [nM]	Structure (SMILES)
4.6	CC(=O)N1CCN(c2nc3c([C@@H](C)Nc4ccc(Cl)nc4C(=O)O)cc(C)cc3nc2C#N)CC1 [Example 160, (R)-3-((1-(3-(4-acetylpiperazin-1-yl)-2-cyano-7-methylquinoxalin-5-yl)ethyl)amino)-6-chloropicolinic acid]
2.1	Cc1cc([C@@H](C)Nc2ccc(Cl)nc2C(=O)O)c2nc(N3CCC(n4cc(C(F)(F)F)cn4)CC3)c(C#N)nc2c1 [Example 139, (R)-6-chloro-3-((1-(2-cyano-7-methyl-3-(4-(4-(trifluoromethyl)-1H-pyrazol-1-yl)piperidin-1-yl)quinoxalin-5-yl)ethyl)amino)picolinic acid]
4.6	Cc1cc([C@@H](C)Nc2ccc(Cl)nc2C(=O)O)c2nc(N3C[C@@H]4[C@@H](CO)[C@@H]4C3)c(C#N)nc2c1 [Example 167, 6-chloro-3-(((R)-1-(2-cyano-3-((1R,5S,6R)-6-(hydroxymethyl)-3-azabicyclo[3.1.0]hexan-3-yl)-7-methylquinoxalin-5-yl)ethyl)amino)picolinic acid]

What follows are molecules tested on T47D (PI3Kα H1047R mutant) cells (assay: Cell viability (CellTiter-Glo 2.0) in T47D cells). Conditions: Homo sapiens, T47D, 72 h, approximately 72 hours.
Assay type: cell-based
Procedure: This Example illustrates that representative compounds of the invention decrease the viability of cells.
The ability of a compound of Formula (I) to decrease the viability of cells was measured using CellTiter-Glo 2.0 (CTG) Luminescent Cell Viability Assay (#G9241) obtained from Promega (Madison, WI).
To prepare assay plates for viability assays, cells were trypsinized, resuspended in fresh media, and viable cells were counted utilizing trypan blue exclusion. T47D, SKBR3, or MKN1 cells were seeded at 1000 cells in 30 μl per well in a solid white flat bottom 384 cell culture plate (Perkin Elmer #6007680) and incubated at 37° C. overnight.
Assay day 1, cells were dosed using an Echo Liquid Handler (Beckman Coulter) with compounds at a 10 μm starting concentration and serially diluted (1:4) for a total of 10 concentrations. Cells were incubated for approximately 72 hours with the compounds (solubilized in DMSO) at 37° C. After 72 hours of treatment, cell plates were equilibrated to room temperature before adding 15 μl of CTG to each well, plates were then covered in aluminum foil to protect from light, incubated at room temperature for 30 minutes on a microtiter plate shaker, and luminescence readings were collected using a CLARIOstar microplate reader (BMG Labtech, Germany). Percent of vehicle control values were plotted as log(inhibitor) vs. response—Variable slope (four parameters) for curve fitting and IC50 values were determined using XLfit.

Structure (SMILES)	IC50 [nM]
Cc1cc([C@@H](C)Nc2nccnc2C(=O)O)c2nc(N3CCC(F)(F)CC3)c(C#N)nc2c1 [Example 113, (R)-3-((1-(2-cyano-3-(4,4-difluoropiperidin-1-yl)-7-methylquinoxalin-5-yl)ethyl)amino)pyrazine-2-carboxylic acid]	1170
Cc1cc([C@@H](C)Nc2ccc(Cl)nc2C(=O)O)c2nc(-n3ccnc3)c(C#N)nc2c1 [Example 117, (R)-6-chloro-3-((1-(2-cyano-3-(1H-imidazol-1-yl)-7-methylquinoxalin-5-yl)ethyl)amino)picolinic acid]	498
Cc1cc([C@@H](C)Nc2cscc2C(=O)O)c2nc(N3CCC(F)(F)CC3)c(C#N)nc2c1 [Example 121, (R)-4-((1-(2-cyano-3-(4,4-difluoropiperidin-1-yl)-7-methylquinoxalin-5-yl)ethyl)amino)thiophene-3-carboxylic acid]	651
CCOCC1CCN(c2nc3c([C@@H](C)Nc4ccc(Cl)nc4C(=O)O)cc(C)cc3nc2C#N)CC1 [Example 119, (R)-6-chloro-3-((1-(2-cyano-3-(4-(ethoxymethyl)piperidin-1-yl)-7-methylquinoxalin-5-yl)ethyl)amino)picolinic acid]	59.9
Cc1cc([C@@H](C)Nc2ccc(Cl)nc2C(=O)O)c2nc(N3CC4(CCO4)C3)c(C#N)nc2c1 [Example 130, (R)-6-chloro-3-((1-(2-cyano-7-methyl-3-(1-oxa-6-azaspiro[3.3]heptan-6-yl)quinoxalin-5-yl)ethyl)amino)picolinic acid]	65.6
Cc1cc([C@@H](C)Nc2cccnc2C(=O)O)c2nc(N3CCC(F)(F)CC3)c(C#N)nc2c1 [Example 118, (R)-3-((1-(2-cyano-3-(4,4-difluoropiperidin-1-yl)-7-methylquinoxalin-5-yl)ethyl)amino)picolinic acid]	383

Next, values leading:

IC50 [nM]	Structure (SMILES)
85.8	CC(=O)N1CCN(c2nc3c([C@@H](C)Nc4ccc(Cl)nc4C(=O)O)cc(C)cc3nc2C#N)CC1 [Example 160, (R)-3-((1-(3-(4-acetylpiperazin-1-yl)-2-cyano-7-methylquinoxalin-5-yl)ethyl)amino)-6-chloropicolinic acid]
150	Cc1cc([C@@H](C)Nc2ccc(Cl)nc2C(=O)O)c2nc(N3C[C@@H]4[C@@H](CO)[C@@H]4C3)c(C#N)nc2c1 [Example 167, 6-chloro-3-(((R)-1-(2-cyano-3-((1R,5S,6R)-6-(hydroxymethyl)-3-azabicyclo[3.1.0]hexan-3-yl)-7-methylquinoxalin-5-yl)ethyl)amino)picolinic acid]
344	Cc1cc([C@@H](C)Nc2ccc(Cl)nc2C(=O)O)c2nc(N3CC[C@H](S(C)(=O)=O)C3)c(C#N)nc2c1 [Example 175, 6-chloro-3-(((R)-1-(2-cyano-7-methyl-3-((S)-3-(methylsulfonyl)pyrrolidin-1-yl)quinoxalin-5-yl)ethyl)amino)picolinic acid]
178	CO[C@H]1CN(c2nc3c([C@@H](C)Nc4ccc(Cl)nc4C(=O)O)cc(C)cc3nc2C#N)CC1(F)F (single isomer, unassigned) [Example 171]
93.3	Cc1cc([C@@H](C)Nc2ccc(Cl)nc2C(=O)O)c2nc(N3CCC(F)(F)[C@H]3C)c(C#N)nc2c1 (single isomer, unassigned) [Example 170]
108	Cc1cc([C@@H](C)Nc2ccc(Cl)nc2C(=O)O)c2nc(N3CCC(F)(F)[C@@H]3C)c(C#N)nc2c1 (single isomer, unassigned) [Example 169]
170	CO[C@@H]1CN(c2nc3c([C@@H](C)Nc4ccc(Cl)nc4C(=O)O)cc(C)cc3nc2C#N)CC1(F)F (single isomer, unassigned) [Example 172]
45.8	Cc1cc([C@@H](C)Nc2ccc(Cl)nc2C(=O)O)c2nc(N3CCO[C@H](C)C3)c(C#N)nc2c1 [Example 168, 6-chloro-3-(((R)-1-(2-cyano-7-methyl-3-((R)-2-methylmorpholino)quinoxalin-5-yl)ethyl)amino)picolinic acid]
